In patent US20140107109A1, “AMINO-DIHYDROTHIAZINE AND AMINO-DIOXIDO DIHYDROTHIAZINE COMPOUNDS AS BETA-SECRETASE ANTAGONISTS AND METHODS OF USE” (Amgen Inc., priority 2012, published 2014):
Read-outs that look alike come from different tables or passages of the source.

Legend:
[1] = molecular target: Beta Secretase enzyme (BACE1) (Homo sapiens, UniProt P56817); test: In vitro enzymatic BACE FRET assay; format: biochemical; conditions: read-out: BACE1 FRET assay IC50
Procedure, shortened: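 BACE1 cleavage of a 50 nM fluorophore/quencher peptide FRET substrate ran for one hour in 0.05 M acetate pH 4.2, 10% DMSO, 100 uM genapol. Tris buffer raised pH to neutrality to stop the reaction before fluorescence was read (excitation 488 nm, […]).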

[2] = test system: Aβ40 in conditioned medium of cells stably expressing Amyloid Precursor Protein (APP); test: In vitro BACE cell-based assay (HEK cell assay), Aβ40 sandwich ELISA; conditions: Homo sapiens, HEK293
Procedure, shortened: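 APP-stably expressing cells (40K/well, grown 24 h in DMEM/10% FBS) were treated 24 h with compounds in 10-point dose response starting at 100 μM or 10 μM, 0.1% DMSO final. Secreted Aβ40 was measured by sandwich ELISA (pAb40 capture, biotinylated 6E10 detection, europium time-resolved fluorescence); IC50 from percent inhibition.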

[3] = molecular target: T1, Cathepsin D (Cat D) (Homo sapiens, UniProt P07339); test: In vitro enzymatic Cathepsin D (Cat D) FRET assay; format: biochemical; conditions: read-out: CatD IC50
T1 construct: Recombinant Cat D was expressed in CHO cells; made in house; host or cells: CHO cells
T1 sequence (P07339 65-412, species assumed): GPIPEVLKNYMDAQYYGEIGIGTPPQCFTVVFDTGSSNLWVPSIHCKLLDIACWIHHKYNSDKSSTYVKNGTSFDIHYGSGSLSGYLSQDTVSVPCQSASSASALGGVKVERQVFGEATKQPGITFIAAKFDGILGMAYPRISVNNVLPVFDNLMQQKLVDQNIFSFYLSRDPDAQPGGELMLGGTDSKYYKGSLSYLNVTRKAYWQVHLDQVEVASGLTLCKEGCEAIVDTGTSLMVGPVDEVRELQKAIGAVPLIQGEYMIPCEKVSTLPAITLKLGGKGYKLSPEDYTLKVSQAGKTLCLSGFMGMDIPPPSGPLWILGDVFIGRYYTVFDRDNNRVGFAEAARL
Procedure, shortened: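 Recombinant Cat D expressed in CHO cells, used at 9 nM and pre-incubated one hour with serially diluted inhibitor in DMSO. Peptide substrate carries a fluorophore and quencher flanking the cleavage site; reaction stopped with Tris buffer raising pH to neutrality, then fluorescence read.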

Sequence of Beta Secretase enzyme (BACE1) (P56817 46-501): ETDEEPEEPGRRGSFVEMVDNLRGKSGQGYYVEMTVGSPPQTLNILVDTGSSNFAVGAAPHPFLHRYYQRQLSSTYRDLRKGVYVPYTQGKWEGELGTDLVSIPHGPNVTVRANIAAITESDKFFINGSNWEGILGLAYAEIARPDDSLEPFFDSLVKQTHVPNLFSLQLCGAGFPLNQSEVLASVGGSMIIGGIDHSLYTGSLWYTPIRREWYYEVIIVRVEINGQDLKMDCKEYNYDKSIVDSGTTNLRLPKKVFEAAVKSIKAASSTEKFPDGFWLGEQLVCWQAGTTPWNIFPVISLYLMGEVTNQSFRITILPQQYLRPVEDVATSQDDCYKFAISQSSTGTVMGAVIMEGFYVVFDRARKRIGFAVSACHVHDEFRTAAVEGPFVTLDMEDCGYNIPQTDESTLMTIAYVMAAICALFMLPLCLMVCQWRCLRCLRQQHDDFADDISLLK

Row | SMILES | IC50 [1] | IC50 [3] | IC50 ([1]; average IC50, enzyme assay) | IC50 ([2]; average IC50, cell assay) | also measured
1 | Cc1cc(OC(F)F)cnc1C(=O)Nc1ccc(F)c([C@@]2(C)N=C(N)C3(CC3)S(=O)(=O)[C@@H]2F)c1 [Example 202, N-(3-((5S,6R)-8-amino-5-fluoro-6-methyl-4,4-dioxido-4-thia-7-azaspiro[2.5]oct-7-en-6-yl)-4-fluorophenyl)-5-(difluoromethoxy)-3-methyl-2-pyridinecarboxamide] | – | 96.7 µM | – | – | IC50 ([1]; average IC50): 0.0015 µM; IC50 ([2]; average IC50, HEK cells): 0.0036 µM
2 | COc1cnc2c(Nc3ccc(F)c([C@]4(CF)CS(=O)(=O)C5(CCC5)C(N)=N4)c3)ncnc2c1 [Example 242, N-(3-((7S)-9-amino-7-(fluoromethyl)-5,5-dioxido-5-thia-8-azaspiro[3.5]non-8-en-7-yl)-4-fluorophenyl)-7-methoxypyrido[3,2-d]pyrimidin-4-amine] | – | 119 µM | 0.00147 µM | 0.014 µM | –
3 | CC1(C)C(N)=N[C@](C)(c2cc(Nc3nccc4nc(C(F)(F)F)cnc34)ccc2F)CS1(=O)=O [Example 55, N-(3-((3R)-5-amino-3,6,6-trimethyl-1,1-dioxido-3,6-dihydro-2H-1,4-thiazin-3-yl)-4-fluorophenyl)-2-(trifluoromethyl)pyrido[3,4-b]pyrazin-5-amine] | 0.0052 µM | > 133 µM | – | – | IC50 ([2]; Aβ40, 24 h incubation): 0.0346 µM
4 | C[C@@]1(c2cc(Br)ccc2F)CS(=O)(=O)[C@]2(C[C@@H](F)C2)C(N)=N1 [Example 118, (2S,4s,7R)-9-amino-7-(5-bromo-2-fluorophenyl)-2-fluoro-7-methyl-5-thia-8-azaspiro[3.5]non-8-ene 5,5-dioxide] | – | 31.1 µM | 4.09 µM | > 15.6 µM | –
5 | C[C@]1(F)C(N)=N[C@](C)(c2cc(Nc3ncnc4cc(C#N)cnc34)ccc2F)CS1(=O)=O [Example 180, 4-((3-((3R,6R)-5-Amino-6-fluoro-3,6-dimethyl-1,1-dioxido-3,6-dihydro-2H-1,4-thiazin-3-yl)-4-fluorophenyl)amino)pyrido[3,2-d]pyrimidine-7-carbonitrile] | – | 65.5 µM | 0.0011 µM | 0.0894 µM | –
6 | COc1cnc2c(Nc3ccc(F)c([C@]4(C(F)F)CS(=O)(=O)C(C)(C)C(N)=N4)c3)nccc2c1 [Example 67, (S)-5-Amino-3-(difluoromethyl)-3-(2-fluoro-5-((3-methoxy-1,7-naphthyridin-8-yl)amino)phenyl)-6,6-dimethyl-3,6-dihydro-2H-1,4-thiazine 1,1-dioxide] | 0.068 µM | > 400 µM | – | – | IC50 ([2]; Aβ40, 24 h incubation): 0.98 µM
7 | CC1(C)C(N)=N[C@](C)(c2cc(Sc3cccc4ccccc34)ccc2F)CS1(=O)=O [Example 79, (R)-5-Amino-3-(2-fluoro-5-(naphthalen-1-ylthio)phenyl)-3,6,6-trimethyl-3,6-dihydro-2H-1,4-thiazine 1,1-dioxide] | 2.5 µM | 33.7 µM | – | – | IC50 ([2]; Aβ40, 24 h incubation): 4.94 µM
8 | Cc1cc(OC(F)F)cnc1C(=O)Nc1cc([C@]2(C)CS(=O)(=O)C(C)(C)C(N)=N2)c(=O)n(C)c1 [Example 171, (R)—N-(5-(5-amino-3,6,6-trimethyl-1,1-dioxido-3,6-dihydro-2H-1,4-thiazin-3-yl)-1-methyl-6-oxo-1,6-dihydropyridin-3-yl)-5-(difluoromethoxy)-3-methylpicolinamide] | – | 186 µM | 0.00927 µM | 0.0083 µM | –
9 | CC1(C)C(N)=N[C@](C)(c2cc(NC(=O)c3ccc(F)cn3)ccc2F)CS1(=O)=O [Example 18, N-(3-((3R)-5-amino-3,6,6-trimethyl-1,1-dioxido-3,6-dihydro-2H-1,4-thiazin-3-yl)-4-fluorophenyl)-5-fluoro-2-pyridinecarboxamide] | 0.0019 µM | > 400 µM | – | – | IC50 ([2]; Aβ40, 24 h incubation): 0.0037 µM
10 | C[C@]1(F)C(N)=N[C@](C)(c2cc(Nc3ncnc4cc(Cl)cnc34)ccc2F)CS1(=O)=O [Example 175, (3R,6R)-5-Amino-3-((5-(7-chloropyrido[3,2-d]pyrimidin-4-yl)amino)-2-fluorophenyl)-6-fluoro-3,6-dimethyl-3,6-dihydro-2H-1,4-thiazine 1,1-dioxide] | – | 75.8 µM | 0.00388 µM | 0.103 µM | –
11 | CC1(C)C(N)=N[C@](C)(c2cc(Nc3ncnc4cc(Cl)cnc34)cnc2F)CS1(=O)=O [Example 225, N-(5-((3R)-5-amino-3,6,6-trimethyl-1,1-dioxido-3,6-dihydro-2H-1,4-thiazin-3-yl)-6-fluoro-3-pyridinyl)-7-chloropyrido[3,2-d]pyrimidin-4-amine] | – | 33 µM | 0.00328 µM | 0.0122 µM | –

More lines, main results first:

Row | IC50 [1] | IC50 [3] | IC50 ([1]; average IC50, enzyme assay) | IC50 ([2]; average IC50, cell assay) | SMILES | also measured
12 | 0.00239 µM | 187 µM | – | – | Cc1cc(Cl)cnc1C(=O)Nc1ccc(F)c([C@]23C[C@H]2S(=O)(=O)C(C)(C)C(N)=N3)c1 [Example 396, N-(3-((1R,6R)-4-amino-3,3-dimethyl-2,2-dioxido-2-thia-5-azabicyclo[4.1.0]hept-4-en-6-yl)-4-fluorophenyl)-5-chloro-3-methyl-2-pyridinecarboxamide] | IC50 [2]: 0.862 µM
13 | 0.00398 µM | 757 µM | – | – | COc1ccc(C(=O)Nc2cnc(F)c([C@]3(C)CS(=O)(=O)C(C)(C)C(N)=N3)c2)nc1 [Example 401, N-(5-((3R)-5-amino-3,6,6-trimethyl-1,1-dioxido-3,6-dihydro-2H-1,4-thiazin-3-yl)-6-fluoro-3-pyridinyl)-5-methoxy-2-pyridinecarboxamide] | IC50 [2]: 0.0179 µM
14 | 2.1 µM | 69.7 µM | – | – | NC1=N[C@](CF)(c2cc(N)ccc2F)CS(=O)(=O)C12CCC2 [Example 417, (7S)-7-(5-amino-2-fluorophenyl)-7-(fluoromethyl)-5-thia-8-azaspiro[3.5]non-8-en-9-amine 5,5-dioxide] | IC50 [2]: 3.65 µM
15 | – | 1690 µM | 2.64 µM | – | Cc1cc(C)c(C#N)c(Oc2ccc(F)c([C@]3(C)CS(=O)(=O)C(C)(C)C(N)=N3)c2)n1 [Example 295, 2-(3-((3R)-5-amino-3,6,6-trimethyl-1,1-dioxido-3,6-dihydro-2H-1,4-thiazin-3-yl)-4-fluorophenoxy)-4,6-dimethyl-3-pyridinecarbonitrile] | IC50 ([2]; average IC50, HEK cell assay): 2.48 µM
16 | – | 136 µM | 0.00075 µM | – | Cc1cc(OC(F)F)cnc1C(=O)Nc1ccc(F)c([C@@]2(C)N=C(N)C(C)(C)S(=O)(=O)C2F)c1 (stereo partly drawn) [Example 330, N-(3-((3R)-5-amino-2-fluoro-3,6,6-trimethyl-1,1-dioxido-3,6-dihydro-2H-1,4-thiazin-3-yl)-4-fluorophenyl)-5-(difluoromethoxy)-3-methyl-2-pyridinecarboxamide] | IC50 ([2]; average IC50, HEK cell assay): 0.0041 µM
17 | – | 217 µM | 2.69 µM | 2.02 µM | Cc1nc(Oc2ccc(F)c([C@]3(C)CS(=O)(=O)C(C)(C)C(N)=N3)c2)ccc1C#N [Example 272, 6-(3-((3R)-5-amino-3,6,6-trimethyl-1,1-dioxido-3,6-dihydro-2H-1,4-thiazin-3-yl)-4-fluorophenoxy)-2-methyl-3-pyridinecarbonitrile] | –
18 | – | 274 µM | 0.101 µM | – | COc1ccnc(Oc2ccc(F)c([C@]3(C)CS(=O)(=O)C(C)(C)C(N)=N3)c2)n1 [Example 309, (5R)-5-(2-fluoro-5-((4-methoxy-2-pyrimidinyl)oxy)phenyl)-2,2,5-trimethyl-5,6-dihydro-2H-1,4-thiazin-3-amine 1,1-dioxide] | IC50 ([2]; average IC50, HEK cell assay): 0.0751 µM
